In brackets after ≈: the same amount, converted by molar mass. Activity calls are given as the source filed them. The rule behind the calls is not given here.
Assays:
HeLa = experiment: Potentiation factor, ratio of IC50 for methyl methanesulfonate to IC50 for methyl methanesulfonate with 200 nM drug for inhibition of human HeLa B cells
[1] = target: Poly [ADP-ribose] polymerase 1 (Homo sapiens, UniProt P09874)
[2] = Solubility of compound in 0.1 M phosphate buffer after 24 hrs by HPLC-UV method; type: physicochemical
[3] = Plasma concentration in mouse at 10 mg/kg, po after 60 mins; type: ADME, organism-based; parameters: dose 10 mg/kg, route oral
[4] = Plasma concentration in mouse at 10 mg/kg, po after 30 mins; type: ADME, organism-based; parameters: dose 10 mg/kg, route oral
[5] = Oral bioavailability in rat at 15 mg/kg, po; type: ADME, organism-based; settings: in vivo
[6] = Half life in rat at 15 mg/kg, iv and po; type: ADME, organism-based; parameters: dose 15 mg/kg, route oral; settings: in vivo
Rattus norvegicus [7] = experiment: AUC (0 to infinity) in rat at 15 mg/kg, iv and po; type: ADME, organism-based, Plasma; parameters: dose 15 mg/kg, route oral; settings: in vivo
Rattus norvegicus [8] = experiment: Volume of distribution in rat at 15 mg/kg, iv and po; type: ADME, organism-based; parameters: dose 15 mg/kg, route oral; settings: in vivo
[9] = Oral bioavailability in dog at 10 mg/kg, po; type: ADME, organism-based, Canis lupus familiaris; settings: in vivo
HCC1937 = experiment: Cytotoxicity against BRCA1-deficient human HCC1937 cells upto 4 uM after 7 to 14 days by clonogenic assay; type: functional, cell-based
Homo sapiens = organism: Homo sapiens; experiment: Cytotoxicity against BRCA1-deficient human […] cells upto 4 uM after 7 to 14 days by clonogenic assay; type: functional, cell-based
SW-620 [10] = experiment: Potentiation of methyl methanesulfonate-induced growth inhibition of human SW620 cells after 4 days by sulforhodamine B assay; type: functional, cell-based
[11] = Half life in dog at 2.5 mg/kg, iv and 10 mg/kg, po; type: ADME, organism-based, Canis lupus familiaris; settings: in vivo
[12] = Clearance in dog at 2.5 mg/kg, iv and 10 mg/kg, po; type: ADME, organism-based, Canis lupus familiaris; settings: in vivo
[13] = Volume of distribution in dog at 2.5 mg/kg, iv and 10 mg/kg, po; type: ADME, organism-based, Canis lupus familiaris; settings: in vivo
Canis familiaris = experiment: AUC (0 to infinity) in dog at 2.5 mg/kg, iv and 10 mg/kg, po; type: ADME, organism-based, Canis lupus familiaris, Plasma; settings: in vivo
SW-620 [14] = experiment: Antitumor activity in human SW620 cells xenografted mouse assessed as days to double the relative tumor volume at 50 mg/kg, po once daily for 5 consecutive days; type: functional
Mus musculus = experiment: Toxicity in human SW620 cells xenografted mouse assessed as maximum mean body weight loss after 3 days; type: organism-based, SW-620; settings: in vivo, 72 h

Sequence of Poly [ADP-ribose] polymerase 1 (P09874 whole entry): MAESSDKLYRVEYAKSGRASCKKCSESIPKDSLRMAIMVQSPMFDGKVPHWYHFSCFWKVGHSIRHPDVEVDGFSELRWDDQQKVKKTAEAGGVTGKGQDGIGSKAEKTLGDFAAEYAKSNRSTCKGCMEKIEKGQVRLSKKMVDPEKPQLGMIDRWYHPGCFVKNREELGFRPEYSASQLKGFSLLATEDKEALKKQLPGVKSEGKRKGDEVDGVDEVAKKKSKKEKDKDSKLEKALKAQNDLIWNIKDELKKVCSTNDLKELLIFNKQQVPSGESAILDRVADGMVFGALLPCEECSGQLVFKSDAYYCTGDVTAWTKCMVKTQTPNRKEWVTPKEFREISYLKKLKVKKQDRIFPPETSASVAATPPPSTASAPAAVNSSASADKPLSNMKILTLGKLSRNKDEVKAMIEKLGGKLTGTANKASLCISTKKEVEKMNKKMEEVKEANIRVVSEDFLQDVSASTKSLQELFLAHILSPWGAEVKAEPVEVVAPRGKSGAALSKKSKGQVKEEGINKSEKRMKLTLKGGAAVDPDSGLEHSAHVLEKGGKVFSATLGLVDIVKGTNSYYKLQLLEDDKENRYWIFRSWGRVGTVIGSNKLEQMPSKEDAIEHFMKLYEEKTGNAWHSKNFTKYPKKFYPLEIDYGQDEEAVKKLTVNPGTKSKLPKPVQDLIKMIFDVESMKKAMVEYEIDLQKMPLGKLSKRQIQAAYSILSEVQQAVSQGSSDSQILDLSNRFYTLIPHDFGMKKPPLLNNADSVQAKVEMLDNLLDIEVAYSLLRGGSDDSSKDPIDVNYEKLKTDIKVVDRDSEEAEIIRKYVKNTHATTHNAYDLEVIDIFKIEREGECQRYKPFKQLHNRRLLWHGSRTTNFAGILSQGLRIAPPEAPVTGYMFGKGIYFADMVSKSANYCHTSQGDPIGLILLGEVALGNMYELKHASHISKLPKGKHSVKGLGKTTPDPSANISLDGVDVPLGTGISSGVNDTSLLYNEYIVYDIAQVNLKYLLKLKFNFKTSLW

SMILES | PF50 (HeLa) | IC50 [1] [nM] | also measured
O=C(c1cc(Cc2n[nH]c(=O)c3ccccc23)ccc1F)N1CCN(c2ccccn2)CC1 | >40 | 2 | –
O=C(c1cc(Cc2n[nH]c(=O)c3ccccc23)ccc1F)N1CCN(c2ncccn2)CC1 | >40 | 3 | –
CN1CCN(C(=O)c2cc(Cc3n[nH]c(=O)c4ccccc34)ccc2F)CC1 | 2.5 | 13 | –
O=C(c1cc(Cc2n[nH]c(=O)c3ccccc23)ccc1F)N1CCN(CCO)CC1 | 3.3 | 12 | –
O=C(c1cccc(Cc2n[nH]c(=O)c3ccccc23)c1)N1CCN(C(=O)N2CCOCC2)CC1 | 2.3 | 8 | –
CCN1CCN(C(=O)c2cc(Cc3n[nH]c(=O)c4ccccc34)ccc2F)CC1 | 7.7 | 6 | –
CCS(=O)(=O)N1CCCN(C(=O)c2cccc(Cc3n[nH]c(=O)c4ccccc34)c2)CC1 | 1.4 | 23 | –
O=C(c1cccc(Cc2n[nH]c(=O)c3ccccc23)c1)N1CCN(c2ccccn2)CC1 | 24.3 | 10 | –
O=C(c1cc(Cc2n[nH]c(=O)c3ccccc23)ccc1F)N1CCCNCC1 | 12.6 | – | –
O=C(c1cccc(Cc2n[nH]c(=O)c3ccccc23)c1)N1CCN(c2ncccn2)CC1 | >40 | 2 | solubility at 24 h [2]: 1 µg/mL (≈ 2.34 µM); concentration at 1 h [3]: 140 ng/mL; concentration at 0.5 h [4]: 300 ng/mL
CCC(=O)N1CCN(C(=O)c2cc(Cc3n[nH]c(=O)c4ccccc34)ccc2F)CC1 | 24.4 | 5 | bioavailability [5]: 40%; half-life [6]: 55 min; concentration at 1 h [3]: 300 ng/mL; AUC (Rattus norvegicus [7]): 423 µg/min/mL; concentration at 0.5 h [4]: 670 ng/mL; Vd (Rattus norvegicus [8]): 0.91 L/kg
O=C(c1cccc(Cc2n[nH]c(=O)c3ccccc23)c1)N1CCCN(CCO)CC1 | 5.4 | 18 | –
O=C(c1cccc(Cc2n[nH]c(=O)c3ccccc23)c1)N1CCNCC1 | 3.7 | – | –
CN1CCN(C(=O)c2cccc(Cc3n[nH]c(=O)c4ccccc34)c2)CC1 | 1.02 | 88 | –
CCCCN1CCN(C(=O)c2cc(Cc3n[nH]c(=O)c4ccccc34)ccc2F)CC1 | 6.4 | 5 | –
O=C(c1cccc(Cc2n[nH]c(=O)c3ccccc23)c1)N1CCN(CCO)CC1 | 1.8 | 39 | –
O=C(c1cc(Cc2n[nH]c(=O)c3ccccc23)ccc1F)N1CCN(C(=O)C2CC2)CC1 [OLAPARIB] | 25.8 | – | bioavailability [5]: 100%; half-life [6]: 53 min; bioavailability [9]: 100%; Activity (HCC1937): Active; Activity (Homo sapiens): Active; concentration at 1 h [3]: 590 ng/mL; AUC (Rattus norvegicus [7]): 304 µg/min/mL; Activity (SW-620 [10]): Dose-dependent effect; half-life [11]: 170 min; clearance [12]: 5.4 mL/min/kg; Vd [13]: 1.3 L/kg; concentration at 0.5 h [4]: 230 ng/mL; AUC (Canis familiaris): 511 µg/min/mL; Vd (Rattus norvegicus [8]): 1.18 L/kg
CCS(=O)(=O)N1CCN(C(=O)c2cc(Cc3n[nH]c(=O)c4ccccc34)ccc2F)CC1 | 4.9 | 8 | –
O=C(c1cccc(Cc2n[nH]c(=O)c3ccccc23)c1)N1CCCN(C(=O)N2CCOCC2)CC1 | 1.4 | 20 | –
O=C(c1cc(Cc2n[nH]c(=O)c3ccccc23)ccc1F)N1CCNCC1 | 8.6 | 5 | –

SMILES | PF50 (HeLa) | IC50 [1] [nM] | also measured
O=C(c1cc(Cc2n[nH]c(=O)c3ccccc23)ccc1F)N1CCN(C(=O)C2CCCCC2)CC1 | 11.1 | 15 | –
O=C(c1cc(Cc2n[nH]c(=O)c3ccccc23)ccc1F)N1CCCN(C(=O)C2CC2)CC1 | 4.2 | 12 | –
O=C(c1cc(Cc2n[nH]c(=O)c3ccccc23)ccc1F)N1CCN(C(=O)C2CCCC2)CC1 | 11.8 | 2 | –
Cn1nnc2c(C(N)=O)ncn2c1=O [TEMOZOLOMIDE] | – | – | Time (SW-620 [14]): 44 days; Activity (Mus musculus): 6%
O=C(c1cc(Cc2n[nH]c(=O)c3ccccc23)ccc1F)N1CCN(c2ccccc2)CC1 | 5.2 | – | concentration at 1 h [3]: 310 ng/mL; concentration at 0.5 h [4]: 700 ng/mL
O=C(c1cc(Cc2n[nH]c(=O)c3ccccc23)ccc1F)N1CCCN(C(=O)N2CCOCC2)CC1 | 2.5 | 8 | –
O=C(c1ccccc1)N1CCN(C(=O)c2cccc(Cc3n[nH]c(=O)c4ccccc34)c2)CC1 | 7.2 | 11 | –
CCS(=O)(=O)N1CCN(C(=O)c2cccc(Cc3n[nH]c(=O)c4ccccc34)c2)CC1 | 4.6 | 12 | –
O=C(c1cc(Cc2n[nH]c(=O)c3ccccc23)ccc1F)N1CCN(C(=O)C2CCCO2)CC1 (configuration not stated) | 39.4 | – | solubility at 24 h [2]: 980 µg/mL (≈ 2110 µM)
O=C(c1cc(Cc2n[nH]c(=O)c3ccccc23)ccc1F)N1CCN(C(=O)C2CCOC2)CC1 (configuration not stated) | 29.8 | 2 | concentration at 1 h [3]: 150 ng/mL; concentration at 0.5 h [4]: 160 ng/mL
CCCN1CCN(C(=O)c2cc(Cc3n[nH]c(=O)c4ccccc34)ccc2F)CC1 | 7.3 | 6 | –
O=C(c1ccccc1)N1CCN(C(=O)c2cc(Cc3n[nH]c(=O)c4ccccc34)ccc2F)CC1 | 8.2 | 6 | –
O=C(c1cccc(Cc2n[nH]c(=O)c3ccccc23)c1)N1CCN(c2ccccc2)CC1 | – | 51 | –
O=C(c1cccc(Cc2n[nH]c(=O)c3ccccc23)c1)N1CCCN(Cc2ccccc2)CC1 | 2.2 | 18 | –
CC(=O)N1CCCN(C(=O)c2cc(Cc3n[nH]c(=O)c4ccccc34)ccc2F)CC1 | 3.7 | 12 | –
CC(=O)N1CCN(C(=O)c2cc(Cc3n[nH]c(=O)c4ccccc34)ccc2F)CC1 | 7.97 | 6 | –
O=C(c1cc(Cc2n[nH]c(=O)c3ccccc23)ccc1F)N1CCCN(CCO)CC1 | 18 | – | –
O=C(c1cc(Cc2n[nH]c(=O)c3ccccc23)ccc1F)N1CCN(C(=O)N2CCOCC2)CC1 | 8.4 | – | –
O=C(c1cc(Cc2n[nH]c(=O)c3ccccc23)ccc1F)N1CCN(CC2CC2)CC1 | 6.5 | – | –

Source: ChEMBL document CHEMBL1140140, “4-[3-(4-cyclopropanecarbonylpiperazine-1-carbonyl)-4-fluorobenzyl]-2H-phthalazin-1-one: a novel bioavailable inhibitor of poly(ADP-ribose) polymerase-1” (J Med Chem, 2008)
